Values of other authors as cited in publication PMC8450225 (Bioorganic & Medicinal Chemistry, 2021).
Like-named read-outs stand apart in the source and are kept apart here. Primed or numbered codes have the meaning given here. Bz′ = not defined here

Tests used:
[1] = tested on: HuH-7 cells; conditions: 1 µM, three days of incubation on HuH-7 cells, Alamar Blue
[2] = tested on: dengue serotype 2; conditions: at 1 µM concentration, HuH-7 and K562 cell lines
[3] = tested on: DENV NS2B-NS3 pro; conditions: 50 µM substrate concentration and 50 µM compound concentration
[4] = tested on: WNV NS2B-NS3 pro; conditions: 50 µM substrate concentration and 25 µM compound concentration
[5] = tested on: DENV2 pro
[6] = tested on: DENV2; conditions: DENV2 viral replication assay
[7] = tested on: DENV2 pro; remark: listed apart in the source
[8] = tested on: DENV 1–4 pro; conditions: range over DENV 1–4 pro
[9] = tested on: DENV2; conditions: DENV2 replication inhibition, BHK21 cells
[10] = tested on: DENV2 pro; remark: listed apart in the source
[11] = tested on: DENV2; conditions: antiviral activity against DENV2
[12] = tested on: DENV2 pro; remark: listed apart in the source
[13] = molecular target: NS2B-NS3 pro; conditions: read-out: Ki (Reported)
[14] = tested on: DENV2 pro; remark: listed apart in the source
[15] = tested on: DENV; conditions: at 100 µM

## O=C1c2c(O)ccc([N+](=O)[O-])c2C(=O)c2c([N+](=O)[O-])ccc(O)c21 [ARDP0006]
[1]
  cytotoxicity: non-cytotoxic
[2]
  reduction of dengue viral titer: > 1 log PFU/mL

## CN(C)C(=O)COC(=O)Cc1ccc(OC(=O)c2ccc(NC(=N)N)cc2)cc1 [Camostat]
[3]
  Percentage inhibition of NS2B-NS3 pro, DENV: 19.6%
[4]
  Percentage inhibition of NS2B-NS3 pro, WNV: 12.6%

## CC(=O)O[C@H]1CC(C)(C)C(=C=C/C(C)=C/C=C/C=C/C=C(C)/C=C2C=C(/C=C/[C@@]34O[C@]3(C)C[C@@H](O)CC4(C)C)C(=O)O/2)[C@](C)(O)C1 [Compound 35, peridinin]
[5]
  EC50: 8.5 ± 0.41 µM

## O=C(Nc1nc2cc(O)c(O)cc2s1)c1ccccc1Sc1ccc(C(F)(F)F)cc1 [Compound 38]
[6]
  EC50: > 3 µM

## O=C(Nc1nc2cc(O)c(O)cc2s1)c1ccccc1Oc1ccc2cc(O)ccc2c1 [Compound 39]
[7]
  IC50: 4.2 ± 0.44 µM

## COc1cc2nc(NC(=O)c3ccccc3Sc3ccc(C(F)(F)F)cc3)sc2cc1OC [Compound 40]
[7]
  IC50: inactive

## Cc1ccc(C2=NC(=O)/C(=C/c3cc(O)c(O)c(Br)c3)S2)cc1 [Compound 42]
[8]
  IC50: 2.94 to 4.06 µM
[9]
  EC50: 6.9 ± 0.6 µM

## Cc1ccc(C(=O)c2cc(O)c(O)c([N+](=O)[O-])c2)cc1 [Compound 43]
[8]
  IC50: 0.64 to 1.15 µM
[9]
  EC50: 2.29 µM

## O=C(OC[C@H]1O[C@@H](OC(=O)c2cc(O)c(O)c(OC(=O)c3cc(O)c(O)c(O)c3)c2)[C@H](OC(=O)c2cc(O)c(O)c(OC(=O)c3cc(O)c(O)c(O)c3)c2)[C@@H](OC(=O)c2cc(O)c(O)c(OC(=O)c3cc(O)c(O)c(O)c3)c2)[C@@H]1OC(=O)c1cc(O)c(O)c(OC(=O)c2cc(O)c(O)c(O)c2)c1)c1cc(O)c(O)c(OC(=O)c2cc(O)c(O)c(O)c2)c1 [Compound 44]
[8]
  IC50: 0.13 to 0.77 µM

## CCc1ccc(NS(=O)(=O)c2ccc(N3C(=O)c4ccccc4C3=O)cc2)cc1 [Compound 46]
[10]
  IC50: 48.2 µM

## CCCCC1C(C(=O)N(C)OC)C(c2ccccc2)CCN1C(=O)OC(C)(C)C (stereo not shown) [Compound 51]
[11]
  EC50: 2.4 µM

## Cc1cc(O)c(S(=O)(=O)O)cc1Cc1cc(S(=O)(=O)O)c(O)c(Cc2cc(S(=O)(=O)O)c(O)cc2C)c1C [Compound 60]
[12]
  IC50: IC50 = 0.48 μg/mL

## Ac-RTSKKR-NH2
[13]
  Ki: 12.1 µM

## BZ-Ala-Lys-Arg-Arg-H ({Bz′}-AKRR-aldehyde; also: C-terminal aldehyde)
[13]
  Ki: 5.3 µM

## Bz-Arg-Lys-(4-CF3-benzyl ether)-D-Phg-NH2 [Compound 7]
[14]
  IC50: 0.069 µM

## Bz-Arg-Lys-(4-benzyloxy)-D-Phg-NH2
[14]
  IC50: 0.367 µM

## Bz-Arg-Lys-Phg-NH2 [reference compound]
[14]; starting tripeptide
  IC50: 3.32 µM

## kaempferol-3-O-rutinoside [Compound 24]
[15]
  DENV inhibition: 77.7%
